# Measurements: patent publication US8722649B2, “Alpha-chloro and alpha-bromo phosphonate analogs of lysophosphatidic acid and methods of making and using thereof” (University of Utah Research Foundation, priority 2007, dated 2014)
# Like-named read-outs stand apart in the source and are kept apart here.
# Assays:
# human LPA3 = target: T1, human LPA3 (Homo sapiens, UniProt Q9UBY5); assay: Ca2+ mobilization assay, LPA3; format: cell-based; settings: for Emax: Emax = (maximal efficacy of compound/maximal efficacy of LPA 18:1) × 100; for EC50: RH7777 cells stably expressing LPA3, agonist mode
# T1 construct: expressed in transfected cells
# T1 sequence (Q9UBY5 1-353): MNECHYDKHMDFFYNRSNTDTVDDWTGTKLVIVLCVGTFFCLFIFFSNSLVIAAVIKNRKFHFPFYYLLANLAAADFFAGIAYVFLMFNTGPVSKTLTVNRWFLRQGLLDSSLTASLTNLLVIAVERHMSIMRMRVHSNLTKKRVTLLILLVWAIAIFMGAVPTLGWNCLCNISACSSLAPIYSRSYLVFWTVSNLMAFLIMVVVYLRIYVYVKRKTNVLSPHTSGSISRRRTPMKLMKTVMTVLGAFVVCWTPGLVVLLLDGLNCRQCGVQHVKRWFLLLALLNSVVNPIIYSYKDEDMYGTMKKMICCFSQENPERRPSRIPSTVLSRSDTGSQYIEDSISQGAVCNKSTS
# Description: (§1) Receptor activation using Ca^2+ mobilization assay for diastereomers of 1 (also represented as 19b). The rat hepatoma (RH7777) cell lines individually expressing either LPA1, LPA2, LPA3 or LPA5 receptors and Chinese hamster ovary (CHO) cell line were analyzed to examine agonism and antagonism. […] CHO cells stably expressing either vector or LPA4 were kindly gifted from Dr. Shimizu (University of Tokyo, Tokyo, Japan).
# (§2) Stable transformants of LPA1/2/3 receptors. RH7777 cells stably expressing each receptor were plated onto poly-L-lysine (PLL) (0.1 mg/mL)-coated black-wall clear-bottom 96-well plates (Corning Incorporated Life Sciences, Acton, Mass.) at a density of 5×10^4 cells/well and cultured overnight. The following day, the culture medium was replaced with modified Krebs buffer (120 mM NaCl, 5 mM KCl, 0.62 mM MgSO4, 1.8 mM CaCl2, 10 mM HEPES, 6 mM glucose, pH 7.4), and the cells were serum starved for 6 h. Subsequently, cells were loaded with Fura-2 AM (Invitrogen, Carlsbad, Calif.) for 35 min in modified Krebs buffer containing 2% (v/v) pluronic acid.
# (§3) After incubating the cells with Fura-2 AM, the cells were rinsed with Krebs buffer and changes in the intracellular Ca^2+ concentration were monitored by determining the ratio of emitted light intensities at 520 nm in response to excitation at 340 and 380 nm using FLEXstation II (Molecular Devices, Sunnyvale, Calif.). Each well was monitored for 80-120 sec. For testing agonist activity of the compounds, the test compounds were added automatically after 15 sec of baseline measurement. […] Each test was performed in quadruplicate. EC50, IC50, and Ki values were calculated by fitting a sigmoid function to data points with the nonlinear curve-fitting feature of KaleidaGraph (Synergy Software, Essex Junction, Vt.).
# (§4) Receptor activation using Ca^2+ mobilization assay. The assay for mobilization of intracellular Ca^2+ was performed as described. Briefly, rat hepatoma RH7777 cells stably expressing human LPA1, LPA2, or LPA3, and CHO cells stably expressing LPA4, were loaded with Fura-2 AM (Molecular Probes). Using a FLEXStation (Molecular Devices, Sunnyvale, Calif.), changes in intracellular Ca^2+ concentration were monitored. Ligand-induced changes in fluorescence were monitored for 80-120 seconds. Ca^2+ transients were quantified automatically by calculating the difference between maximum and baseline ratio values for each sample. […] Each test was performed in quadruplicate. EC50, IC50, and Ki values were calculated as described. The ligand properties of the compounds were evaluated using Ca^2+ mobilization assay for assessing the activation/inhibition of LPA1, LPA2, and LPA3 expressed in RH7777 cells and LPA4 expressed in CHO cells.
# human LPA4 = target: T2, human LPA4 (Homo sapiens, UniProt Q99677); assay: Ca2+ mobilization assay, LPA4 in CHO cells; format: cell-based; settings: for EC50: CHO cells stably expressing LPA4, agonist mode
# T2 construct: expressed in transfected cells
# T2 sequence (Q99677 whole entry): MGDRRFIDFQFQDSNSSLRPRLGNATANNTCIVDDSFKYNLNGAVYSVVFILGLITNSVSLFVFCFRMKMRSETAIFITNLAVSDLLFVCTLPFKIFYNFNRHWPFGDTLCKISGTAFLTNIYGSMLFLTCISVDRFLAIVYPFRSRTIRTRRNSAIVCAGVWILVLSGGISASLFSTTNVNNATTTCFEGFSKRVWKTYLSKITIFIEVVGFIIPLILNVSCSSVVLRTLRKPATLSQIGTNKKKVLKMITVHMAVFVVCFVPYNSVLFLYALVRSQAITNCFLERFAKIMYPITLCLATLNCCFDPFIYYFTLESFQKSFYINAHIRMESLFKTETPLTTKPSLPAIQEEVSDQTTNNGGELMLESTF
# Description: as §1
# Stable transformants of LPA4. CHO cells stably expressing either vector or LPA4 were plated on non-coated 96 well plates at a density of 4×10^4 cells/well and cultured overnight. The following day, cells were loaded with Fura-2 AM for 1 h in modified Krebs buffer containing 2% (v/v) pluronic acid and 2.5 mM probenecid.
# as §3, §4
# recombinant ATX-HA = target: T3, recombinant ATX-HA (Homo sapiens, UniProt Q13822); assay: Autotaxin assay (FS-3 hydrolysis); format: biochemical; settings: 10.0 μM, FS-3 substrate, preliminary single-dose screen; for inhibition at 10 µM: read-out: Inhibition (%) of autotaxin (ATX) phosphodiesterase activity
# T3 construct: HA
# Description: Autotaxin Assay. This assay utilizes FS-3 (Echelon Biosciences, Inc. Salt Lake City, Utah) as substrate and recombinant ATX-HA. For analysis, 50 μl of ATX-HA (0.25 μg) in assay buffer (Tris 50 mM, NaCl 140 mM, KCl 5mM, CaCl2 1 mM, MgCl2 1 mM, pH 8.0) was mixed with 25 μl of FS-3 (1 μM final concentration in assay buffer) and 25 μl of test compound dissolved in assay buffer containing 1:1.5 bovine serum albumin in 96-well plate. FS-3 fluorescence was monitored using FLEXstation fluorescence plate reader at a time zero and after 2 hours of incubation at 37° C. at excitation and emission wavelengths of 485 nm and 538 nm, respectively. Data was normalized to the corresponding vehicle control and the mean±standard deviation of triplicate wells were expressed as percent ATX inhibition. IC50, and Ki values were calculated as described.
# human LPA1 = target: T4, human LPA1 (Homo sapiens, UniProt Q92633); assay: Ca2+ mobilization assay, LPA1; format: cell-based; settings: for EC50: RH7777 cells stably expressing LPA1, agonist mode; for IC50 / Ki: antagonist mode vs 200 nM LPA; for IC50: PA = partial antagonist, read-out: LPA1 IC50; for Ki: read-out: LPA1 (Ki)
# T4 construct: expressed in transfected cells
# T4 sequence (Q92633 whole entry): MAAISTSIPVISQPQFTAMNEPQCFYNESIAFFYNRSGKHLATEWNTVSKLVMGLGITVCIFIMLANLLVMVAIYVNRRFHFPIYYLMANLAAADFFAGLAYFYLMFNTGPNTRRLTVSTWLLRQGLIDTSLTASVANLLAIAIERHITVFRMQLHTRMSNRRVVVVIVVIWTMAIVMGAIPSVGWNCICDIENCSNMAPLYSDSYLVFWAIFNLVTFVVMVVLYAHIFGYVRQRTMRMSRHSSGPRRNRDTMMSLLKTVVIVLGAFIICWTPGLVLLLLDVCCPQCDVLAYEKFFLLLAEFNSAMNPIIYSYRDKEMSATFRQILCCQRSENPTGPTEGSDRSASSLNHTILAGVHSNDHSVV
# Description: as §1, §2
# After incubating the cells with Fura-2 AM, the cells were rinsed with Krebs buffer and changes in the intracellular Ca^2+ concentration were monitored by determining the ratio of emitted light intensities at 520 nm in response to excitation at 340 and 380 nm using FLEXstation II (Molecular Devices, Sunnyvale, Calif.). Each well was monitored for 80-120 sec. For testing agonist activity of the compounds, the test compounds were added automatically after 15 sec of baseline measurement. To determine antagonist properties, varying concentrations of the compounds were mixed with a constant concentration of LPA and responses were monitored. Each test was performed in quadruplicate. EC50, IC50, and Ki values were calculated by fitting a sigmoid function to data points with the nonlinear curve-fitting feature of KaleidaGraph (Synergy Software, Essex Junction, Vt.).
# Receptor activation using Ca^2+ mobilization assay. The assay for mobilization of intracellular Ca^2+ was performed as described. Briefly, rat hepatoma RH7777 cells stably expressing human LPA1, LPA2, or LPA3, and CHO cells stably expressing LPA4, were loaded with Fura-2 AM (Molecular Probes). Using a FLEXStation (Molecular Devices, Sunnyvale, Calif.), changes in intracellular Ca^2+ concentration were monitored. Ligand-induced changes in fluorescence were monitored for 80-120 seconds. Ca^2+ transients were quantified automatically by calculating the difference between maximum and baseline ratio values for each sample. To determine antagonist properties, different concentrations of each analogue were mixed with either palmitoyl (16:0) or oleoyl (18:1) LPA (200 nM for LPA1 and LPA3, 10 nM for LPA2, and 400 nM for LPA4) (Avanti Polar Lipids, Inc., […], Ala.) and responses were recorded. Each test was performed in quadruplicate. EC50, IC50, and Ki values were calculated as described. The ligand properties of the compounds were evaluated using Ca^2+ mobilization assay for assessing the activation/inhibition of LPA1, LPA2, and LPA3 expressed in RH7777 cells and LPA4 expressed in CHO cells. Table l illustrates calcium responses elicited through the activation of human LPA1, LPA2, LPA3 and LPA4 receptors. These cell lines have been used extensively for the characterization of LPA GPCR ligands because RH7777 cells are intrinsically unresponsive to LPA and CHO cells show minimal endogenous responses to LPA unless transfected with LPA4.
# human LPA2 = target: T5, human LPA2 (Homo sapiens, UniProt Q9HBW0); assay: Ca2+ mobilization assay, LPA2; format: cell-based; settings: for EC50: RH7777 cells stably expressing LPA2, agonist mode; for IC50: read-out: LPA2 IC50; for Ki: read-out: LPA2 (Ki)
# T5 construct: expressed in transfected cells
# T5 sequence (Q9HBW0 whole entry): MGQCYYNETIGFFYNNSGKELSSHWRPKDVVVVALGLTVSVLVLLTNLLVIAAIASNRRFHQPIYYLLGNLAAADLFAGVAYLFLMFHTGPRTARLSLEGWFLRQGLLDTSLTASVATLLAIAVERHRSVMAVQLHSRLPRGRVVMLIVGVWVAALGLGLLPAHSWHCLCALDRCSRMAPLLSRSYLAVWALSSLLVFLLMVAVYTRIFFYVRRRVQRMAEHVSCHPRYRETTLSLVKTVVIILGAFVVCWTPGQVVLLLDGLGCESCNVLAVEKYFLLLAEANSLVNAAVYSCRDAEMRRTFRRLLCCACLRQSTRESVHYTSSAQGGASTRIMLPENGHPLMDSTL
# Description: as §1, §2, §3, §4
# [1] = antagonist mode vs 10 nM LPA, PA = partial antagonist
structure (smiles),measurement,setting,value
"CCCCCCCC/C=C\CCCCCCCC(=O)OC[C@@H](O)CC(Cl)P(=O)(O)O (mixture of isomers) [Compound 18a, [1-Chloro-3(S)-hydroxyl-4-(oleoyloxy)butyl]-phosphonate]",Emax,human LPA3,63.5%
same,EC50,human LPA3,> 2.67 µM
same,EC50,human LPA4,3.48 ± 0.561 µM
same,Emax,"human LPA4; CHO, Emax = (maximal efficacy of compound/maximal efficacy of LPA 18:1) × 100",40.5%
same,inhibition at 10 µM,recombinant ATX-HA,92.5 ± 2.1%
same,Emax,human LPA1; Emax = (maximal efficacy of compound/maximal efficacy of LPA 18:1) × 100,63.2%
same,EC50,human LPA1,0.528 µM
same,IC50,human LPA1,> 30 µM
same,EC50,human LPA2,> 30 µM
same,IC50,human LPA2; [1],1.69 ± 0.085 µM
same,Ki,human LPA2; antagonist mode vs 10 nM LPA,0.845 µM
same,IC50,human LPA2; antagonist of the LPA2 receptor,1.7 µM
"CCCCCCCCCCCCCCCC(=O)OC[C@@H](O)CC(Cl)P(=O)(O)O (mixture of isomers) [Compound 18b, [1-Chloro-3(S)-hydroxyl-4-(palmitoyloxy)butyl]-phosphonate]",EC50,human LPA3,> 30 µM
same,Ki,"human LPA3; antagonist mode vs 200 nM LPA, read-out: LPA3 (Ki)",0.0983 µM
same,IC50,human LPA3; read-out: LPA3 IC50,0.175 µM
same,EC50,human LPA4,> 30 µM
same,inhibition at 30 µM,"human LPA4; CHO, read-out: LPA4 inhibition of 400 nM LPA response",80%
same,inhibition at 10 µM,recombinant ATX-HA,83 ± 2.1%
same,EC50,human LPA1,> 30 µM
same,IC50,human LPA1,2.49 ± 0.69 µM
same,Ki,human LPA1,0.919 µM
same,EC50,human LPA2,> 30 µM
same,IC50,human LPA2; [1],0.855 µM
same,Ki,human LPA2; antagonist mode vs 10 nM LPA,0.428 µM
"CCCCCCCC/C=C\CCCCCCCC(=O)OC[C@@H](O)CC(Br)P(=O)(O)O (mixture of isomers) [Compound 19a, [1-Bromo-3(S)-hydroxyl-4-(oleoyloxy)butyl]-phosphonate]",Emax,human LPA3,44.2%
same,EC50,human LPA3,> 2.47 µM
same,IC50,human LPA4,4 ± 0.424 µM
same,EC50,human LPA4,> 30 µM
same,Ki,human LPA4; antagonist mode vs 400 nM LPA,2.5 µM
same,Inhibition (%) of autotaxin (ATX) phosphodiesterase activity,recombinant ATX-HA,90.7 ± 2.3%
same,inhibition at 10 µM,recombinant ATX-HA,> 90%
same,EC50,human LPA1,> 30 µM
same,IC50,human LPA1,1.62 ± 0.116 µM
same,Ki,human LPA1,0.694 µM
same,EC50,human LPA2,> 30 µM
same,IC50,human LPA2; [1],0.815 ± 0.06 µM
same,Ki,human LPA2; antagonist mode vs 10 nM LPA,0.174 µM
